In USRE37999E1, “20-(B)-20,25-dihydroperoxy-3β-hydroxycholest-5-ene and 20-(S)-20,25-dihydroperoxy-3β-hydroxycholest-5-ene” (Iowa State University Research Foundation, Inc., priority 1988, dated 2003):
“And” between values parts separate entries of the source, which are not always exact repeats. Identical values can stand only once.

How the values were obtained:
[1] = tested on: mouse peritoneal macrophages; assay: Esterification of cholesterol in mouse peritoneal macrophages (3H-oleate incorporation into cholesteryl ester); type: cell-based; settings: 15 min preincubation
Experimental: The effects of cholesterol hydroperoxides on the esterification of cholesterol in mouse peritoneal macrophages was tested as follows:
Monolayers of mouse peritoneal macrophages were pretreated with various concentration of ⟦deleted by reissue: 20-(S)-hydroperoxy-cholest-5-ene-3β,25-diol hydroxycholesterol (A) or 20-(R)-hydroperoxycholest-5-ene-3β,25 diol (B) ⟧ 20-(S)-20,25-dihydroperoxy-3β-hydroxycholest-5-ene-(A) or 20-(R)-20,25-dihydroperoxy-3β-hydroxycholest-5-ene (B) at 37° C. After 15 min preincubation, medium M199 providing 2.5% fetal calf serum, acetyl-LDL (25 μg protein/ml) and ^3H-oleate (0.25 μCi/ml) was added to the culture dishes. After 6 hr of incubation with 5% CO2 at 37° C. the cellular lipids were extracted. This layer chromatography was used to separate cholesteryl ester from other lipid classes before the radioactivity was determined. The activities reported have been corrected for losses during chromatography and elution of the thin-layer plates.

calmodulin = calmodulin (Homo sapiens, UniProt P0DP23); assay: Inhibition of calmodulin activity (method of Leung et al. 1984); type: biochemical
Experimental: The inhibition of calmodulin activity by A and B were measured using the method described by Leung et al. (1984) and the results are shown in Table 1.
In still another experiment, inhibition of calmodulin by the same cholesterol hydroperoxides was tested. The calmodulin inhibition was assayed as described by Leung et al. (J. Biol. Chem., 259:2742-2747, 1984).

[2] = tested on: acyl-Coenzyme-A:cholesterol acyltransferase (ACAT); assay: Inhibition of ACAT in mouse liver microsomes (14C-oleoyl-Coenzyme A); type: biochemical; settings: 15 min pretreatment
Experimental: In another experiment, the inhibition of ⟦deleted by reissue: acrylCoenzyme-A:cholesterol ⟧ acyl-Coenzyme-A:cholesterol acyltransferase (ACAT) by cholesterol hydroperoxides, compounds A and B was used. Mouse liver microsomes (140 μg protein/assay) were treated with various concentrations of compounds A and B for 15 min prior to starting the assay by the addition of ^14C-oleoyl-Coenzyme A (41 μM, 0.068 μCi/assay). The reaction was carried on at 37° C. for exactly 5 min. then terminated by the addition of chloroform and methanol. The cellular lipids were extracted and separated by thin-layer chromatography.

[3] = tested on: mouse peritoneal macrophages; assay: Time course of incorporation of 3H-oleate into cholesterol esters by mouse peritoneal macrophages; type: cell-based; settings: for inhibition of 3H-oleate incorporation into cholesterol esters (in words): 50 μM compound A or 25 μM compound B
Experimental: In a further experiment, the time course of incorporation of ^3H-oleate into the same cholesterol esters by mouse peritoneal macrophages was studied. Mouse peritoneal macrophages were gorwn in M199 medium containing 2.5% fetal calf serum and acetyl-LDL (25 μg protein/ml) for 18 hr at 37° C. The medium was then replaced by M199 containing 2.5% fetal calf serum; ^3H-oleate with 50 μM compound A or 25 μM compound B or no hydroperoxide. At the time intervals indicated, the medium was aspirated and the cellular lipid was extracted and analyzed by thin-layer chromatography.

[4] = tested on: rabbits fed an atherogenic diet; settings: cited from earlier work
[5] = 2.5 μM hydroperoxide, 6 hr incubation with acetyl-LDL and 3H-oleate
[6] = 5 μM hydroperoxide, 6 hr incubation
[7] = 10 μM hydroperoxide, 6 hr incubation
[8] = 25 μM hydroperoxide, 6 hr incubation
[9] = 50 μM hydroperoxide, 6 hr incubation
[10] = 75 μM hydroperoxide, 6 hr incubation
[11] = 100 μM hydroperoxide, 6 hr incubation
[12] = 0.01 μg compound preincubated with 0.3 units calmodulin, assay 30 C, 30 min
[13] = 0.1 μg compound preincubated with 0.3 units calmodulin, assay 30 C, 30 min
[14] = 1 μg compound preincubated with 0.3 units calmodulin, assay 30 C, 30 min
[15] = 2.5 μM, 5 min reaction at 37° C
[16] = Table 1, Control + EDTA, amount not given
[17] = Table 9, EGTA, amount not given

| SMILES | Counts per min 3H incorporated into cholesteryl ester [1, 5] | Counts per min 3H incorporated into cholesteryl ester [1, 6] [Counts per min] | Counts per min 3H incorporated into cholesteryl ester [1, 7] | Counts per min 3H incorporated into cholesteryl ester [1, 8] | Counts per min 3H incorporated into cholesteryl ester [1, 9] [Counts per min] | Counts per min 3H incorporated into cholesteryl ester [1, 10] | Counts per min 3H incorporated into cholesteryl ester [1, 11] | % inhibition (calmodulin; [12]) [%] | nmole P produced^i (calmodulin; [12]) [nmol] | % inhibition (calmodulin; [13]) [%] | nmole P produced^i (calmodulin; [13]) [nmol] | % inhibition (calmodulin; [14]) [%] | nmole P produced^i (calmodulin; [14]) [nmol] | % inhibition (calmodulin; Table 9, 0.1 μg) [%] | nmoles phosphate produced (calmodulin; Table 9, 0.1 μg) [nmol] | % inhibition (calmodulin; Table 9, 1 μg) [%] | nmoles phosphate produced (calmodulin; Table 9, 1 μg) [nmol] | Counts per minute in cholesterol esters [2, 15] | Counts per minute in cholesterol esters ([2]; 5 μM, 5 min reaction) | Counts per minute in cholesterol esters ([2]; 10 μM, 5 min reaction) | further results |
| --- | --- | --- | --- | --- | --- | --- | --- | --- | --- | --- | --- | --- | --- | --- | --- | --- | --- | --- | --- | --- | --- |
| CC(C)(CCC[C@](C)(OO)[C@H]1CC[C@H]2[C@@H]3CC=C4C[C@@H](O)CC[C@]4(C)[C@H]3CC[C@@]21C)OO [Compound A, 20-(S)-20,25-dihydroperoxy-3β-hydroxycholest-5-ene] | 55816 Counts per min and 47673 Counts per min | 59136 | 33700 Counts per min and 29618 Counts per min | 14510 Counts per min and 17621 Counts per min | 6059 | 5074 Counts per min and 5047 Counts per min | 2830 Counts per min and 3970 Counts per min | 28 | 22.9 | 68 | 16.1 | 92 | 12.1 | 68 | 16.1 | 92 | 12.1 | 4702 Counts per minute and 4651 Counts per minute | 4109 Counts per minute and 3420 Counts per minute | 3033 Counts per minute and 5422 Counts per minute | % inhibition (calmodulin; Table 9, 0.01 μg): 28%; nmoles phosphate produced (calmodulin; Table 9, 0.01 μg): 22.9 nmol; Counts per minute in cholesterol esters ([2]; 16.7 μM, 5 min reaction): 1643 Counts per minute and 1206 Counts per minute; Counts per minute in cholesterol esters ([2]; 20 μM, 5 min reaction): 1652 Counts per minute and 1708 Counts per minute; Counts per minute in cholesterol esters ([2]; 25 μM, 5 min reaction): 1121 Counts per minute and 652 Counts per minute; Counts per minute in cholesterol esters ([2]; 33.3 μM, 5 min reaction): 841 Counts per minute and 1141 Counts per minute; Counts per minute in cholesterol esters ([2]; 50 μM, 5 min reaction): 632 Counts per minute and 573 Counts per minute; Counts per minute in cholesterol esters ([2]; 100 μM, 5 min reaction): 304 Counts per minute and 297 Counts per minute; inhibition of 3H-oleate incorporation into cholesterol esters (in words) ([3]; 5 min): apparent at the shortest time samples; Counts per minute in cholesterol ester ([3]; 50 μM compound A, 5 min): 2627 Counts per minute and 1994 Counts per minute; Counts per minute in cholesterol ester ([3]; 50 μM compound A, 10 min): 2462 Counts per minute and 3092 Counts per minute; Counts per minute in cholesterol ester ([3]; 50 μM compound A, 20 min): 5223 Counts per minute and 6049 Counts per minute; Counts per minute in cholesterol ester ([3]; 50 μM compound A, 30 min): 4007 Counts per minute and 2937 Counts per minute; Counts per minute in cholesterol ester ([3]; 50 μM compound A, 60 min): 4088 Counts per minute and 5295 Counts per minute; Counts per minute in cholesterol ester ([3]; 50 μM compound A, 120 min): 7269 Counts per minute and 10036 Counts per minute; Counts per minute in cholesterol ester ([3]; 50 μM compound A, 240 min): 19627 Counts per minute and 17564 Counts per minute |
| CC(C)(CCC[C@@](C)(OO)[C@H]1CC[C@H]2[C@@H]3CC=C4C[C@@H](O)CC[C@]4(C)[C@H]3CC[C@@]21C)OO [Compound B, 20-(R)-20,25-dihydroperoxy-3β-hydroxycholest-5-ene] | 41574 Counts per min and 34918 Counts per min | 32751 | 25140 Counts per min and 16252 Counts per min | 7752 Counts per min and 6232 Counts per min | 4073 | 3177 Counts per min and 3385 Counts per min | 4427 Counts per min and 2401 Counts per min | 4 | 26.9 | 61 | 17.3 | 81 | 13.8 | 61 | 17.3 | 81 | 13.8 | 4557 Counts per minute and 3518 Counts per minute | 1786 Counts per minute and 2336 Counts per minute | 2499 Counts per minute and 1896 Counts per minute | % inhibition (calmodulin; Table 9, 0.001 μg): 4%; nmoles phosphate produced (calmodulin; Table 9, 0.001 μg): 26.9 nmol; Counts per minute in cholesterol esters ([2]; 16.7 μM, 5 min reaction): 920 Counts per minute and 964 Counts per minute; Counts per minute in cholesterol esters ([2]; 25 μM, 5 min reaction): 500 Counts per minute and 720 Counts per minute; Counts per minute in cholesterol esters ([2]; 33.3 μM, 5 min reaction): 429 Counts per minute and 563 Counts per minute; Counts per minute in cholesterol esters ([2]; 50 μM, 5 min reaction): 315 Counts per minute and 294 Counts per minute; Counts per minute in cholesterol esters ([2]; 100 μM, 5 min reaction): 131 Counts per minute and 244 Counts per minute; Counts per minute in cholesterol ester ([3]; 25 μM compound B, 5 min): 2218 Counts per minute and 1256 Counts per minute; Counts per minute in cholesterol ester ([3]; 25 μM compound B, 10 min): 2560 Counts per minute and 2019 Counts per minute; Counts per minute in cholesterol ester ([3]; 25 μM compound B, 20 min): 3245 Counts per minute and 4788 Counts per minute; Counts per minute in cholesterol ester ([3]; 25 μM compound B, 30 min): 3202 Counts per minute and 2943 Counts per minute; Counts per minute in cholesterol ester ([3]; 25 μM compound B, 60 min): 5054 Counts per minute and 7341 Counts per minute; Counts per minute in cholesterol ester ([3]; 25 μM compound B, 120 min): 7534 Counts per minute and 9160 Counts per minute; Counts per minute in cholesterol ester ([3]; 25 μM compound B, 240 min): 18532 Counts per minute and 15819 Counts per minute; inhibition of 3H-oleate incorporation into cholesterol esters (in words) ([3]; 5 min): apparent at the shortest time samples |
| O=C(O)CN(CCN(CC(=O)O)CC(=O)O)CC(=O)O [EDTA, reference compound] |  |  |  |  |  |  |  |  |  |  |  |  |  |  |  |  |  |  |  |  | % inhibition (calmodulin; [16]): 100%; nmole P produced^i (calmodulin; [16]): 10.7 nmol |
| O=C(O)CN(CCOCCOCCN(CC(=O)O)CC(=O)O)CC(=O)O [EGTA, reference compound] |  |  |  |  |  |  |  |  |  |  |  |  |  |  |  |  |  |  |  |  | % inhibition (calmodulin; [17]): 100%; nmoles phosphate produced (calmodulin; [17]): 10.7 nmol |
| CN(C)CCCN1c2ccccc2Sc2ccc(Cl)cc21 [chlorpromazine] |  |  |  |  |  |  |  |  |  |  |  |  |  |  |  |  |  |  |  |  | blood cholesterol [4]: without lowering of blood cholesterol; development of atherosclerotic lesions [4]: reduced the development of such lesions |
